In BindingDB's records for doi:10.1021/jm030452x (University of Arizona, 2004):
pEC50, pIC50: −log10 of the molar value.

Legend:
[1] = target: Melanocortin receptor 1 (Rana pipiens); assay: Effective concentration required for maximum agonist response at melanocortin 1 receptor from frog skin.
[2] = target: Melanocyte-stimulating hormone receptor (Rana pipiens); assay: Inhibition of 1 nM alpha melanocortin stimulating hormone (MSH) from frog skin

SMILES	pEC50 [1]	pIC50 [2]
C[C@@H](O)[C@H](NC(=O)[C@@H]1CCCCNC(=O)C[C@H](NC(=O)[C@H](N)Cc2ccccc2)C(=O)N[C@@H](Cc2cnc[nH]2)C(=O)N[C@H](Cc2ccccc2)C(=O)N[C@@H](CCCNC(=N)N)C(=O)N[C@@H](Cc2c[nH]c3ccccc23)C(=O)N1)C(N)=O [1N-(1-carbamoyl-2-hydroxypropyl)-7-[3-amino(imino)methylaminopropyl]-16-(1-amino-2-phenylethylcarboxamido)-10-benzyl-13-(1H-5-imidazolylmethyl)-4-(1H-3-indolylmethyl)-3,6,9,12,15,18-hexaoxo-2,5,8,11,14,19-hexaazacyclotricosane-1-carboxamide]	10.00	
C[C@@H](O)[C@H](NC(=O)[C@@H]1CSSC[C@H](NC(=O)[C@H](N)Cc2ccccc2)C(=O)N[C@@H](Cc2cnc[nH]2)C(=O)N[C@@H](Cc2cccc3ccccc23)C(=O)N[C@@H](CCCNC(=N)N)C(=O)N[C@H](Cc2c[nH]c3ccccc23)C(=O)N1)C(N)=O [1N-(1-carbamoyl-2-hydroxypropyl)-15-[3-amino(imino)methylaminopropyl]-6-(1-amino-2-phenylethylcarboxamido)-9-(1H-5-imidazolylmethyl)-18-(1H-3-indolylmethyl)-12-(1-naphthylmethyl)-7,10,13,16,19-pentaoxo-3,4-dithia-8,11,14,17,20-pentaazacycloicosan]	5.30	
C[C@@H](O)[C@H](NC(=O)[C@H]1NC(=O)[C@H](Cc2c[nH]c3ccccc23)NC(=O)[C@H](CCCN=C(N)N)NC(=O)[C@@H](Cc2c[nH]c3ccccc23)NC(=O)[C@H](Cc2ccc(O)cc2)NC(=O)[C@@H](NC(=O)[C@H](N)Cc2ccccc2)CSSC1(C)C)C(N)=O [1N-(1-carbamoyl-2-hydroxypropyl)-15-[3-amino(imino)methylaminopropyl]-6-(1-amino-2-phenylethylcarboxamido)-9-(4-hydroxybenzyl)-12,18-di(1H-3-indolylmethyl)-2,2-dimethyl-7,10,13,16,19-pentaoxo-3,4-dithia-8,11,14,17,20-pentaazacycloicosane-1-carboxami]		6.00
C[C@@H](O)[C@H](NC(=O)[C@H]1NC(=O)[C@H](CO)NC(=O)[C@H](CCCNC(=N)N)NC(=O)[C@@H](Cc2c[nH]c3ccccc23)NC(=O)[C@H](Cc2ccc(O)cc2)NC(=O)[C@@H](NC(=O)[C@H](N)Cc2ccccc2)CSSC1(C)C)C(N)=O [1N-(1-carbamoyl-2-hydroxypropyl)-15-[3-amino(imino)methylaminopropyl]-6-(1-amino-2-phenylethylcarboxamido)-9-(4-hydroxybenzyl)-18-hydroxymethyl-12-(1H-3-indolylmethyl)-2,2-dimethyl-7,10,13,16,19-pentaoxo-3,4-dithia-8,11,14,17,20-pentaazacycloicosane]		6.00
C[C@@H](O)[C@H](NC(=O)[C@H]1NC(=O)[C@H](Cc2c[nH]c3ccccc23)NC(=O)[C@H](CCCN=C(N)N)NC(=O)[C@@H](Cc2c[nH]c3ccccc23)NC(=O)[C@H](Cc2ccccc2)NC(=O)[C@@H](NC(=O)[C@H](N)Cc2ccccc2)CSSC1(C)C)C(N)=O [1N-(1-carbamoyl-2-hydroxypropyl)-15-[3-amino(imino)methylaminopropyl]-6-(1-amino-2-phenylethylcarboxamido)-9-benzyl-12,18-di(1H-3-indolylmethyl)-2,2-dimethyl-7,10,13,16,19-pentaoxo-3,4-dithia-8,11,14,17,20-pentaazacycloicosane-1-carboxamide]		6.00
C[C@H](O)[C@@H](NC(=O)[C@H]1CSSC[C@H](NC(=O)[C@H](N)Cc2ccccc2)C(=O)N[C@@H](Cc2cnc[nH]2)C(=O)N[C@@H](Cc2ccc(Cl)cc2)C(=O)N[C@@H](CCCNC(=N)N)C(=O)N[C@H](Cc2c[nH]c3ccccc23)C(=O)N1)C(N)=O [1N-(1-carbamoyl-2-hydroxypropyl)-15-[3-amino(imino)methylaminopropyl]-6-(1-amino-2-phenylethylcarboxamido)-12-(4-chlorobenzyl)-9-(1H-5-imidazolylmethyl)-18-(1H-3-indolylmethyl)-7,10,13,16,19-pentaoxo-3,4-dithia-8,11,14,17,20-pentaazacycloicosane-]	7.52	
C[C@@H](O)[C@H](NC(=O)[C@@H]1CSSC[C@H](NC(=O)[C@H](N)Cc2ccccc2)C(=O)N[C@@H](Cc2cnc[nH]2)C(=O)N[C@@H](Cc2ccc(F)cc2)C(=O)N[C@@H](CCCNC(=N)N)C(=O)N[C@H](Cc2c[nH]c3ccccc23)C(=O)N1)C(N)=O [1N-(1-carbamoyl-2-hydroxypropyl)-15-[3-amino(imino)methylaminopropyl]-6-(1-amino-2-phenylethylcarboxamido)-12-(4-fluorobenzyl)-9-(1H-5-imidazolylmethyl)-18-(1H-3-indolylmethyl)-7,10,13,16,19-pentaoxo-3,4-dithia-8,11,14,17,20-pentaazacycloicosane-]	6.00	
C[C@@H](O)[C@H](NC(=O)[C@H]1CSSC[C@H](NC(=O)[C@@H](N)Cc2ccccc2)C(=O)N[C@@H](Cc2cnc[nH]2)C(=O)N[C@H](Cc2ccccc2)C(=O)N[C@@H](CCCNC(=N)N)C(=O)N[C@H](Cc2c[nH]c3ccccc23)C(=O)N1)C(N)=O [1N-(1-carbamoyl-2-hydroxypropyl)-15-[3-amino(imino)methylaminopropyl]-6-(1-amino-2-phenylethylcarboxamido)-12-benzyl-9-(1H-5-imidazolylmethyl)-18-(1H-3-indolylmethyl)-7,10,13,16,19-pentaoxo-3,4-dithia-8,11,14,17,20-pentaazacycloicosane-1-carboxam]	5.52	
C[C@@H](O)[C@H](NC(=O)[C@H]1CSSC[C@H](NC(=O)[C@H](N)Cc2ccccc2)C(=O)N[C@@H](Cc2cnc[nH]2)C(=O)N[C@@H](Cc2ccccc2)C(=O)N[C@@H](CCCNC(=N)N)C(=O)N[C@H](Cc2c[nH]c3ccccc23)C(=O)N1)C(N)=O [1N-(1-carbamoyl-2-hydroxypropyl)-15-[3-amino(imino)methylaminopropyl]-6-(1-amino-2-phenylethylcarboxamido)-12-benzyl-9-(1H-5-imidazolylmethyl)-18-(1H-3-indolylmethyl)-7,10,13,16,19-pentaoxo-3,4-dithia-8,11,14,17,20-pentaazacycloicosane-1-carboxam]	8.00	
C[C@@H](O)[C@H](NC(=O)[C@H]1NC(=O)[C@H]([C@@H](C)O)NC(=O)[C@H](CCCNC(=N)N)NC(=O)[C@@H](Cc2c[nH]c3ccccc23)NC(=O)[C@H](Cc2ccc(I)cc2)NC(=O)[C@@H](NC(=O)[C@H](N)Cc2ccccc2)CSSC1(C)C)C(N)=O [1N-(1-carbamoyl-2-hydroxypropyl)-15-[3-amino(imino)methylaminopropyl]-6-(1-amino-2-phenylethylcarboxamido)-18-(1-hydroxyethyl)-12-(1H-3-indolylmethyl)-9-(4-iodobenzyl)-2,2-dimethyl-7,10,13,16,19-pentaoxo-3,4-dithia-8,11,14,17,20-pentaazacycloicosane]		7.00
C[C@@H](O)[C@H](NC(=O)[C@@H]1CCSSC[C@H](NC(=O)[C@H](N)Cc2ccccc2)C(=O)N[C@@H](Cc2cnc[nH]2)C(=O)N[C@H](Cc2ccccc2)C(=O)N[C@@H](CCCNC(=N)N)C(=O)N[C@@H](Cc2c[nH]c3ccccc23)C(=O)N1)C(N)=O [1N-(1-carbamoyl-2-hydroxypropyl)-16-[3-amino(imino)methylaminopropyl]-7-(1-amino-2-phenylethylcarboxamido)-13-benzyl-10-(1H-5-imidazolylmethyl)-19-(1H-3-indolylmethyl)-8,11,14,17,20-pentaoxo-4,5-dithia-9,12,15,18,21-pentaazacyclohenicosane-1-carb]	6.00	
C[C@H](O)[C@@H](NC(=O)[C@H]1CSSC[C@H](NC(=O)[C@@H](N)Cc2ccccc2)C(=O)N[C@@H](Cc2c[nH]cn2)C(=O)N2Cc3ccccc3C[C@H]2C(=O)N[C@@H](CCCN=C(N)N)C(=O)N[C@H](Cc2c[nH]c3ccccc23)C(=O)N1)C(N)=O [(2R,3S)-2-{[(3S,6R,9S,14R,17S)-14-[(2S)-2-amino-3-phenylpropanamido]-3-{3-[(diaminomethylidene)amino]propyl}-17-(1H-imidazol-4-ylmethyl)-6-(1H-indol-3-ylmethyl)-1,4,7,15,18-pentaoxo-1H,2H,3H,4H,5H,6H,7H,8H,9H,10H,13H,14H,15H,16H,17H,18H,20H,25H,25aH-isoquinolino[3,2-m]1,2-dithia-5,8,11,14,17-pentaazacycloicosan-9-yl]formamido}-3-hydroxybutanamide]		6.00
C[C@@H](O)[C@H](NC(=O)[C@H]1NC(=O)[C@H](Cc2c[nH]c3ccccc23)NC(=O)[C@H](CCCNC(=N)N)NC(=O)[C@@H](Cc2ccccc2)NC(=O)[C@H](Cc2cnc[nH]2)NC(=O)[C@@H](NC(=O)[C@H](N)Cc2ccccc2)CSSC1(C)C)C(N)=O [H-D-Phe-c[Cys-His-D-Phe-Arg-Trp-Pen]-Thr-NH2]	7.00	
C[C@@H](O)[C@H](NC(=O)[C@@H]1CSSCC[C@H](NC(=O)[C@H](N)Cc2ccccc2)C(=O)N[C@@H](Cc2cnc[nH]2)C(=O)N[C@H](Cc2ccccc2)C(=O)N[C@@H](CCCNC(=N)N)C(=O)N[C@@H](Cc2c[nH]c3ccccc23)C(=O)N1)C(N)=O [H-D-Phe-c[Hcy-His-D-Phe-Arg-Trp-Cys]-Thr-NH2]	9.52	
